# Test results from patent EP0503537B1, “6,9 Bis(substituted-amino)benzo-[g]isoquinoline-5,10-diones” (THE UNIVERSITY OF VERMONT, priority 1991, dated 1992).
# “And” between values parts separate entries of the source, which are not always exact repeats. Equal values may be shown once.
# Columns and labels:
# [1] = tested on: L1210 Murine leukemia cells; assay: In vitro growth inhibition of L1210 murine leukemia cells (Coulter Counter); format: cell-based; details: Mus musculus, 72 hours of continuous exposure
# Description: The "in vitro" cytotoxic evaluation was also performed on L 1210 murine leukemia cells using the above mentioned cells maintained in suspension cultures (McCoy's 5A medium supplemented with 10% horse serum, glutamine, penicillin and streptomycin) grown in an humidified environment of 10% carbon dioxide and 90% air at 37°C. The compounds were dissolved in dimethylsulfoxide (DMSO) and added to the suspended cells in appropriate concentrations. After 72 hours of continuous exposure, the cell concentration was counted using a Coulter Counter and growth inhibition calculated using the formula: % growth inhibition = 1 - [cell number treated/cell number DMSO alone] x 100. [formula]
# The IC50 was calculated from the growth inhibition data and they are reported in table VII in comparison to the prior art compound 5a (see table I for structure of 5a).
# L1210 Murine leukemia cells were routinely maintained in suspension cultures in McCoy's 5A medium supplemented with 10% horse serum glutamine, penicillin and streptomycin and grown in a humidified environment of 10% carbon dioxide and 90% air at 37°C.
# To assess the in vitro toxicity, each compound was dissolved in dimethylsulfoxide and added to 1 ml of L1210 cells (10^5 cells/tube) to attain final concentrations of 0.01, 0.1 and 1 µg of drug/ml of culture. After 72 hours of continues exposure to the drug, the cell concentration was determined with a Coulter Counter. Growth inhibition was calculated for each drug using the following formula: % growth inhibition = 1-[cell number treated/cell number DMSO alone] x 100. [formula]
# The growth inhibition data was then used to calculate the IC50 value (the calculated drug concentration required to inhibit cell growth by 50% of control.
# [2] = tested on: human colon adenocarcinoma cell line (Lovo); assay: MTT cytotoxicity assay on human colon adenocarcinoma Lovo cells; format: cell-based; details: 144 h, read-out: IC50 µg/ml±S.D. LoVo
# Description: (§1) The evaluation of the "in vitro" cytotoxic activity of the compounds of the invention was performed using a human colon adenocarcinoma cell line (Lovo) isolated from a metastatic nodule and a subline with aquired resistance to a number of antitumor agents, among which doxorubicin, VP-16 and vincristine. […] The compounds were tested according to the MTT assay (Mosman, T., "Rapid Colorimetric assay for cellular growth and survival: application to proliferation and cytotoxicity assay", J. Immunol. Methods, (1983), 65, 55-63; Green, L.M., "Rapid colorimetric assay for cell viability; application to the quantitation of cytotoxic and growth inhibitory lymphokines", J. Immunol. Methods, (1984), 70, 257-268) in comparison with mitoxantrone, ametantrone and doxorubicin.
# (§2) In vitro biological evaluation: MTT assay on human colon adenocarcinoma Lovo cells.
# (§3) The MTT assay was performed according to Mosmann, T., J. Immunol. Methods, (1983), 65, 55-63 and Green, L. M., J. Immunol. Methods, (1984), 70, 257-268.
# (§4) Immediately before use, compounds and reference standards are dissolved in proper solvent and subsequently further diluted in complete culture medium. Human colon adenocarcinoma cells Lovo and the subline resistant to doxorubicin (Lovo/DX) (2.5. 10^4 cells/ml) are plated in 96-well plates and preincubated for 24 hours in culture medium. After this time, the cells are exposed to drugs for 144 hours, then the thiazolyl blue tetrazolium bromide solution (MTT solution) is added and the cells are reincubated for 4 hours. The supernatant is removed and 150 µl of dimethylsulfoxide are added to solubilize formazan crystals. The plate is read at 570 nm with microplate reader and the inhibiting concentration of 50% cellular growth (IC50; µg/ml) is calculated.
# Lovo/DX = assay: MTT cytotoxicity assay on doxorubicin-resistant subline Lovo/DX; format: cell-based, human
# Description: as §1, §2, §3, §4
# P388 Murine Leukemia [3] = assay: In vivo P388 murine leukemia (iv/iv, d 1, 4, 7); details: for T/C% (range): median survival time; for TOX: toxic deaths/total number of mice; for LTS: tumor free at 60 days
# Description: P388 Murine Leukemia cells were maintained in vivo by serial intraperitoneal (i.p.) injections of 10^6 cells in DBA2 mice. For test purposes, CDF1 mice were inoculated intravenously (i.v.) with 10^6 P388 cells and treatment was initiated 24 hr later. The i.v. dose of drug was administered on days 1, 4 and 7. Mice were observed daily for signs of toxicity and survival. The date of death was recorded for each animal that died or was sacrificed during the 60 day study. The median survival time (MST) for each treatment group was calculated and the % T/C was determined using the following formula: % T/C = [(MST treated)/(MST control)] x 100 [formula]
# P388 Murine Leukemia [4] = assay: In vivo ascitic P388 murine leukemia (ip/ip, d 1, 5, 9); design: species or system CDF1 mice; details: for % T/C (range): median survival time; for TOX: toxic deaths/total No. of mice
# Description: Treatment was initiated approximately 24 hours after tumor transplantation and dosages of the drug were administered ip (P388 ip/ip) or iv (P388 iv/iv) according to preestablished protocols, usually at 3-day (P388 iv/iv) or 4-day (P388 ip/ip) intervals. The studies were done over a 60-day period and the date of death for each animal was recorded. The % T/C was determined using the mean survival time (MST) for each group according to the formula % T/C = [(MST treated)/(MST control)] x 100 [formula]
# P388 Murine Leukemia cells were maintained in vivo by serial intraperitoneal (ip) injections of 10^6 cells in DBA2 mice. For test purposes, CDF1 mice were inoculated i.p. with 10^6 P388 cells and treatment was initiated 24 hours later. The i.p dose of drug was administered on days 1, 5 and 9. Mice were observed daily for signs of toxicity and survival. The date of death was recorded for each animal that died or was sacrificed during the 60-day study. The median survival time (MST) for each treatment group was calculated and the % T/C was determined using the following formula: % T/C = [(MST treated)/(MST control)] x 100 [formula]
# [5] = tested on: murine Lewis Lung carcinoma; assay: In vivo murine Lewis Lung carcinoma (im/iv); design: species or system C57b1/6 female mice; details: LEWIS LUNG im/iv 1,8,15; for T/C %: median survival time; for TOX: toxic deaths/total number of mice; for TWI %: tumor Weight Inhibition 7 days after last treatment
# Description: (§5) These tumor models are enclosed in the panel of eight transplanted tumors used by the U.S.-NCl as screen panel for selection of clinically useful antitumor agents (R.K.Y. Zee Cheng and C.C. Cheng, "Screening and evaluation of anticancer agents", Meth. and Find. Expl. Clin. Pharmacol., (1988), 10(2), 67-101).
# C57b1/6 female mice were trasplantated im (intralimbs) with 10^5 cells. […] The mean tumor weight for each treatment group was calculated according to Geran, R.I. et al., Cancer Chemother. Rep., (1972), 3, 51-61 and the TWI% was calculated 7 days after the last drug treatment using the formula: TWI% = 100-[(Mean tumor weight of treated mice)/(mean tumor weight of controls)] x 100. [formula]
# [6] = tested on: human MX-1 mammary carcinoma; assay: In vivo human MX-1 mammary carcinoma xenograft (sc/iv); details: MX-1 sc/iv q 7d x 3; for TWI %: CD1 nu/nu female mice; for TOX: toxic deaths/total number of mice
# Excerpt: as §5
# CD1 nu/nu female mice were transplantated sc (subcutaneously) with tumor fragments (about 1 mm x 1 mm x 1 mm). Treatment was given iv once a week for three weeks, when tumor weight reached an average of 150 mg. For all individual tumors the weight change (relative tumor weight) for the start of treatment (Vo) was expressed as Vt/Vo at each day of measurement (Vt). TWI% was calculated 7 days after the last drug treatment using the formula: TWI% = 100-[(mean relative tumor weight of treated mice)/(mean relative tumor weight of controls)] x 100. [formula]
# L1210 murine leukemia = assay: In vivo L1210 murine leukemia (ip/ip, d 1, 5, 9), protocol a, 10^6 cells; design: species or system BDF1 mice; details: days 1, 5 and 9, ip; for %T/C: mean survival time; for LTS: tumor-free at 60 days
# Description: L 1210 leukemia cells were intraperitoneally (ip) injected in CDFl mice and treatment was initiated approximately 24 hours after tumor transplantation. Dosages of the drugs were administered ip according to preestablished protocols, usually at 4-day intervals. The studies were done over a 60-day period and the date of death for each animal was recorded. The % T/C was determined using the mean survival time (MST) for each group according to the formula % T/C = [(MST treated)/(MST control)] x 100 [formula]
# • a) L1210 murine leukemia cells were maintained in vivo by weekly intraperitoneal (ip) injections of 10^6 cells in BDF1 mice. For test purposes, mice were inoculated i.p. with 10^6 L1210 cells and treatment was initiated 24 hours later. The desired dose of drug was administered on days 1, 5 and 9. Mice were observed daily for signs of toxicity and survival. The date of death was recorded for each animal that died or was sacrificed during the 60-day study. The mean survival time (MST) for each treatment group was calculated and the % T/C was determined using the following formula: % T/C = [(MST treated)/(MST control)] x 100 [formula] The results are reported in table X • b) L1210 murine leukemia cells were maintained in vivo by weekly intraperitoneal (ip) injections of 10^5 cells in DBA2 mice. For test purposes, CDF1 mice were inoculated i.p. with 10^5 L1210 cells and treatment was initiated 24 hours later. The desired dose of drug was administered on days 1, 5 and 9. Mice were observed daily for signs of toxicity and survival. The date of death was recorded for each animal that died or was sacrificed during the 60-day study. The median survival time (MST) for each treatment group was calculated and the % T/C was determined using the following formula: % T/C = [(MST treated)/(MST control)] x 100 [formula]
smiles,measurement,setting,value
"O=C1c2ccncc2C(=O)c2c(NCCN3CC3)ccc(NCCN3CC3)c21 [Compound 10f, 6,9-Bis{[2-(1'-aziridino)ethyl]amino}benzo[g]isoquinoline-5,10-dione]",IC50,[1],0.002 µg/mL
"NCCNc1ccc(NCCN)c2c1C(=O)c1ccncc1C2=O.O=C(O)/C=C\C(=O)O.O=C(O)/C=C\C(=O)O [Compound 10i.maleate, 6,9-bis{[2-(amino)ethyl]amino}benzo[g]isoquinoline-5,10-dione dimaleate]",IC50,[2],0.21 ± 0.08 µg/mL
same,IC50,"Lovo/DX; Homo sapiens, LoVo/DX, MTT assay, 144 hrs drug exposure, read-out: IC50 µg/ml±S.D. LoVo/Dx",6.7 ± 1.8 µg/mL
same,R.I.,Lovo/DX; R.I. = (IC50 LoVo/Dx)/(IC50 LoVo),31.8
same,T/C% (range),"P388 Murine Leukemia [3]; 18 mg/kg/day iv days 1,4,7, dimaleate",200% and 188%
same,TOX,"P388 Murine Leukemia [3]; 18 mg/kg/day iv days 1,4,7",0/16
same,LTS,"P388 Murine Leukemia [3]; 18 mg/kg/day iv days 1,4,7",0/16
same,T/C% (range),"P388 Murine Leukemia [3]; 27 mg/kg/day iv days 1,4,7",203(181-227) %
same,TOX,"P388 Murine Leukemia [3]; 27 mg/kg/day iv days 1,4,7",2/32
same,LTS,"P388 Murine Leukemia [3]; 27 mg/kg/day iv days 1,4,7",0/32
same,LTS (day 60),"P388 Murine Leukemia [4]; 25 mg/kg/day ip days 1,5,9",0/8
same,% T/C (range),"P388 Murine Leukemia [4]; 25 mg/kg/day ip days 1,5,9",185%
same,TOX,"P388 Murine Leukemia [4]; 25 mg/kg/day ip days 1,5,9",0/8
same,LTS (day 60),"P388 Murine Leukemia [4]; 37.5 mg/kg/day ip days 1,5,9",1/8
same,% T/C (range),"P388 Murine Leukemia [4]; 37.5 mg/kg/day ip days 1,5,9",260%
same,TOX,"P388 Murine Leukemia [4]; 37.5 mg/kg/day ip days 1,5,9",1/8
same,T/C %,[5]; 40 mg/Kg/day,158%
same,TOX,[5]; 40 mg/Kg/day,0/10
same,TWI %,[5]; 40 mg/Kg/day,80%
same,T/C %,[5]; 60 mg/Kg/day,182%
same,TOX,[5]; 60 mg/Kg/day,1/10
same,TWI %,[5]; 60 mg/Kg/day,95%
same,TWI %,[6]; 17 mg/Kg/day,65%
same,TOX,[6]; 17 mg/Kg/day,0/7
same,TWI %,[6]; 26.6 mg/Kg/day,58%
same,TOX,[6]; 26.6 mg/Kg/day,0/7
same,TWI %,[6]; 40 mg/Kg/day,64%
same,TOX,[6]; 40 mg/Kg/day,1/5
"O=C1c2ccncc2C(=O)c2c(NCCNCCO)ccc(NCCNCCO)c21 [Compound 10l.maleate, 6,9-bis{[2-(2-hydroxyethylamino)ethyl]amino}benzo[g]isoquinoline-5,10-dione]",IC50,[1],0.06 µg/mL
same,%T/C,L1210 murine leukemia; Dose 12.5 mg/kg,313%
same,LTS,L1210 murine leukemia; Dose 12.5 mg/kg,2/6
same,%T/C,L1210 murine leukemia; Dose 25 mg/kg,415%
same,LTS,L1210 murine leukemia; Dose 25 mg/kg,1/6
